Values joined by “and” are separate entries in the source; they are usually repeats but may differ in a detail not shown here. Equal entries are not always repeated. Where two headings read alike, the source gives them in different places.
Legend:
[1] = test system: AIEC strain LF82 adhesion to T84 intestinal epithelial cells; test: Adhesion assay on T84 cells with thiazolylaminomannosides (Example 22.3); format: cell-based, Escherichia coli
Procedure, shortened: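 CEACAM6-overexpressing T84 cells pre-incubated 1 h with compound (0.1, 1, 10, 100 μM), then infected with AIEC LF82 at MOI 10 for 3 h in compound presence. Cell-associated bacteria counted after washing; residual adhesion expressed relative to untreated (100%).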

[2] = target: T1, monovalent lectin domain of FimH (Escherichia coli, UniProt P08191); format: binding
T1 construct: with the monovalent lectin domain of FimH were measured using isothermal calorimetry (ITC)
T1 sequence (P08191 22-179): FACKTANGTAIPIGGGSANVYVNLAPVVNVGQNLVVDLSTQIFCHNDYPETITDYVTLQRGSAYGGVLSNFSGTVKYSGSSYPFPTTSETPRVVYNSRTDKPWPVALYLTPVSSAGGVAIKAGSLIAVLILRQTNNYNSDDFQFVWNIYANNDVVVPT

[3] = test system: E. coli strain UTI89 expressing type-1 fimbriae; test: Bacterial crosslinking, epi-fluorescence microscopy; format: cell-based, Escherichia coli; conditions: acridin orange colored UTI89
Procedure: The possibility to capture living bacteria in solution with β-CD-based glycol-clusters 2 and 4, using epi-fluorescence microscopy was investigated.
It was decided to evaluate if the FimH aggregation evidenced in ITC, DLS and SAXS could also occur when the lectin is attached at the tip of the bacteria pili. E. coli strain UTI89 expressing type-1 fimbriae. Said bacteria were diluted from the culture medium into PBS and glyco-conjugated in a ten-fold dilution series of 2 or 4 were added. Bacterial cells were then colored with acridin orange.
100 μl of glycoconjugate-agglutinated E. coli were washed in 1 ml PBS, resuspended in 200 μl 0.1% acridin orange and left at room temperature for 2.5 hours. The bacterial cells were washed again in 1 ml PBS to remove unbound acridin orange. A microscope glass was rinsed with 100% EtOH and next dried at the air.

[4] = test system: AIEC LF82 strain adhesion to T84 intestinal epithelial cells; test: Adhesion assay on T84 cells, cells incubated 1 h with mannoside prior infection (Example 21.1); format: cell-based, Escherichia coli
Procedure: E. coli strain LF82 was isolated from a chronic ileal lesion of a patient with Crohn's disease (CD). Bacteria were grown routinely in Luria-Bertani (LB) broth overnight at 37° C. Intestinal epithelial cells T84 derived from colonic adenocarcinoma were maintained in an atmosphere containing 5% CO2 at 37° C. in DMEM/F12 (50/50) medium supplemented with 10% (v/v) heat-inactivated fetal calf serum (FCS), 1% L-glutamine, 100 000 U·l^−1 penicillin, 100 mg·l^−1 streptomycin, 25 μg·l^−1 amphotericin B.
T84 cells were seeded in 48-well tissue culture plates with 1.5×10^5 cells per well and grown for 48 h. Cells were incubated 1 h prior infection with each mannoside at a final concentration of 100; 10; 1 or 0.1 μM in complete medium without antibiotics, containing heat inactivated fetal calf serum (FCS) and were next infected with AIEC LF82 strain at a multiplicity of infection (MOI) of 10 bacteria per cell. After a 3 h incubation period at 37° C., the monolayers were washed in phosphate-buffered saline (PBS; pH 7.2). The epithelial cells were then lysed with 1% Triton X-100 in deionized water. Samples were diluted and plated onto Luria Bertani agar plates to determine the number of cfu recovered from the lysed monolayers.
Results were expressed in percentage of residual adhesion, considering adhesion level of AIEC LF82 without mannoside treatment as 100%.

SMILES	Inhibitory potency relative to α-D-mannose [1]	Inhibitory effect on adhesion ([1]; 100 nM)	AIEC remaining attached to the cells (residual adhesion) ([1]; 1 μM)	Residual adhesion ([1]; 10 μM)	Affinity of FimH for the ligand (in words) ([2]; ITC)	Molar ratio n meas ([2]; normal (direct) titration)	ΔG° ([2]; normal (direct) titration)	ΔH° ([2]; normal (direct) titration)	ΔS° ([2]; normal (direct) titration)	Kd ([2]; normal (direct) titration, compound injected into FimH)	Molar ratio n meas ([2]; reverse titration)	ΔG° ([2]; reverse titration)	ΔH° ([2]; reverse titration)	ΔS° ([2]; reverse titration)	Kd ([2]; reverse titration, FimH injected into compound)	Bacterial clustering in solution [3]	Concentration reaching around 75% of binding inhibition (25% line) [4]
CCCCCCCO[C@H]1O[C@H](CO)[C@@H](O)[C@H](O)[C@@H]1O [HM, Heptylmannoside, reference compound]	100 times	no significant effect	No significant decrease	52.4%	–	–	–	–	–	–	–	–	–	–	–	–	–
OCC1OC(OCCCCCCCOCc2cn(CC3OC4OC5C(Cn6cc(COCCCCCCCOC7OC(CO)C(O)C(O)C7O)nn6)OC(OC6C(Cn7cc(COCCCCCCCOC8OC(CO)C(O)C(O)C8O)nn7)OC(OC7C(Cn8cc(COCCCCCCCOC9OC(CO)C(O)C(O)C9O)nn8)OC(OC8C(Cn9cc(COCCCCCCCOC%10OC(CO)C(O)C(O)C%10O)nn9)OC(OC9C(Cn%10cc(COCCCCCCCOC%11OC(CO)C(O)C(O)C%11O)nn%10)OC(OC%10C(Cn%11cc(COCCCCCCCOC%12OC(CO)C(O)C(O)C%12O)nn%11)OC(OC3C(O)C4O)C(O)C%10O)C(O)C9O)C(O)C8O)C(O)C7O)C(O)C6O)C(O)C5O)nn2)C(O)C(O)C1O (centres unmarked) [Compound 2]	–	–	–	–	nanomolar affinities	0.12	-10.5 kcal/mol	-77.5 kcal/mol	−227 cal/mol/deg	18.2 nM	3 and 3.01	-11.6 kcal/mol	-19.2 kcal/mol	−25.9 cal/mol/deg	2.86 nM and 2.9 nM	formation of bacterial clusters	1 µM
